Experimental data reported in patent publication US20260174763A1, “PREPARATION METHOD AND USE OF A NOVEL TAXANE-BASED COMPOUND” (Jiangsu Jibeier Pharmaceutical Co., Ltd., priority 2023, published 2026).

Columns and labels:
[1] = test system: human lung cancer cell line A549; assay: CTG proliferation inhibition, A549; assay type: cell-based; settings: 72 h incubation, read-out: IC50 (nM) of the test compounds for various tumor cell lines
Experimental: (§1) Testing the inhibition effect of the compounds of Formula (I) and Formula II on the proliferation of various tumor cell lines by CTG method:
(§2) The CellTiter-Glo Luminescent Cell Viability Assay (CTG) method was used to test the inhibition effect of the compounds of Formula (I) and Formula II on the proliferation of various tumor cell lines, and IC50 value was calculated. The tumor cell lines included: human pancreatic cancer cell lines: SW1990, PANC-1, HPAF-II; human gastric cancer cell lines: NCI-N87, MGC-803; human esophageal cancer cell lines: KYSE-150, KYSE-410; human head-and-neck cancer cell lines: C666-1, Fadu; human breast cancer cell line: MDA-MB-231; human lung cancer cell line: A549; human adrenocortical carcinoma cell line: SW-13; human bladder cancer/urothelial carcinoma cell line: BIU-87, totally 13 tumor cell lines.
(§3) Experimental method: cells in logarithmic growth phase were obtained. The cell suspension was added to each well of a 96-well plate, placed in an incubator at 37° C. for overnight incubation. Complete mediums corresponding to each of the tumor cell lines were used to dilute the test compounds of […] and Formula II. The drugs were subjected to gradient dilution according to the following table. Culture medium containing the drug to be tested was added to the 96-well plate. Replicates were provided or each concentration in three wells; and a negative control well not containing the drug to be tested was provided. The 96-well plate was placed in incubator for incubation for 72 h and then added thereto a CTG reagent, with a blank control well provided. The substances in the wells were mixed evenly, and the cells were lysed and incubated at room temperature for 10 min. The […] signal value (Lum) was measured with a microplate reader.
(§4) Data processing and analysis: The software GraphPad Prism 8.0 was used to process the data graphically, calculate IC50, perform four-parameter non-linear regression analysis on the data, and map the corresponding dose-response curve. The equation for calculating cell viability is as below: […]

[2] = test system: human pancreatic cancer cell line PANC-1; assay: CTG proliferation inhibition, PANC-1; assay type: cell-based; settings: 72 h incubation, read-out: IC50 (nM) of the test compounds for various tumor cell lines
Experimental: as §1, §2, §3, §4

[3] = test system: human head-and-neck cancer cell line Fadu; assay: CTG proliferation inhibition, Fadu; assay type: cell-based; settings: 72 h incubation, read-out: IC50 (nM) of the test compounds for various tumor cell lines
Experimental: as §1, §2, §3, §4

[4] = test system: human bladder cancer/urothelial carcinoma cell line BIU-87; assay: CTG proliferation inhibition, BIU-87; assay type: cell-based; settings: 72 h incubation, read-out: IC50 (nM) of the test compounds for various tumor cell lines
Experimental: as §1, §2, §3, §4

[5] = test system: human esophageal cancer cell line KYSE-410; assay: CTG proliferation inhibition, KYSE-410; assay type: cell-based; settings: 72 h incubation, read-out: IC50 (nM) of the test compounds for various tumor cell lines
Experimental: as §1, §2, §3, §4

[6] = test system: human pancreatic cancer cell line SW1990; assay: CTG proliferation inhibition, SW1990; assay type: cell-based; settings: 72 h incubation, read-out: IC50 (nM) of the test compounds for various tumor cell lines
Experimental: as §1, §2, §3, §4

[7] = test system: human gastric cancer cell line NCI-N87; assay: CTG proliferation inhibition, NCI-N87; assay type: cell-based; settings: 72 h incubation, read-out: IC50 (nM) of the test compounds for various tumor cell lines
Experimental: as §1, §2, §3, §4

[8] = test system: human esophageal cancer cell line KYSE-150; assay: CTG proliferation inhibition, KYSE-150; assay type: cell-based; settings: 72 h incubation, read-out: IC50 (nM) of the test compounds for various tumor cell lines
Experimental: as §1, §2, §3, §4

[9] = test system: human pancreatic cancer cell line HPAF-II; assay: CTG proliferation inhibition, HPAF-II; assay type: cell-based; settings: 72 h incubation, read-out: IC50 (nM) of the test compounds for various tumor cell lines
Experimental: as §1, §2, §3, §4

[10] = test system: human gastric cancer cell line MGC-803; assay: CTG proliferation inhibition, MGC-803; assay type: cell-based; settings: 72 h incubation, read-out: IC50 (nM) of the test compounds for various tumor cell lines
Experimental: as §1, §2, §3, §4

[11] = test system: human head-and-neck cancer cell line C666-1; assay: CTG proliferation inhibition, C666-1; assay type: cell-based; settings: 72 h incubation, read-out: IC50 (nM) of the test compounds for various tumor cell lines
Experimental: as §1, §2, §3, §4

[12] = test system: human breast cancer cell line MDA-MB-231; assay: CTG proliferation inhibition, MDA-MB-231; assay type: cell-based; settings: 72 h incubation, read-out: IC50 (nM) of the test compounds for various tumor cell lines
Experimental: as §1, §2, §3, §4

[13] = test system: human adrenocortical carcinoma cell line SW-13; assay: CTG proliferation inhibition, SW-13; assay type: cell-based; settings: 72 h incubation, read-out: IC50 (nM) of the test compounds for various tumor cell lines
Experimental: as §1, §2, §3, §4

[14] = test system: tumor cell; settings: compared with paclitaxel; cited from earlier work
[15] = test system: advanced breast cancer; settings: clinical outcome; cited from earlier work
[16] = test system: advanced ovarian cancer; settings: clinical outcome; cited from earlier work
[17] = test system: advanced non-small cell lung cancer; settings: clinical outcome; cited from earlier work

SMILES | IC50 [1] [nM] | IC50 [2] [nM] | IC50 [3] [nM] | IC50 [4] [nM] | IC50 [5] [nM] | IC50 [6] [nM] | IC50 [7] [nM] | IC50 [8] [nM] | IC50 [9] [nM] | IC50 [10] [nM] | IC50 [11] [nM] | IC50 [12] [nM] | IC50 [13] [nM] | ability to inhibit cell division relative to paclitaxel [14] | tumor cell proliferation inhibition rate relative to paclitaxel [14] [times] | effective rate [15] [%] | effective rate [16] [%] | effective rate [17] [%]
CC(=O)OC12COC1CC(O)C1(C)C(=O)C(OC(=O)Nc3ccc(C(C)O)cc3)C3=C(C)C(OC(=O)C(O)C(NC(=O)OC(C)(C)C)c4ccccc4)CC(O)(C(OC(=O)c4ccccc4)C21)C3(C)C (centres unmarked) [Compound I-2] | 11.7 | 2.89 | 4.15 | 29.1 | 0.101 | 3.1 | 7.46 | 1.75 | 8.65 | 3.4 | 7.34 | 0.042 | 6.12 | – | – | – | – | –
CC(=O)OC12COC1CC(O)C1(C)C(=O)C(OC(=O)Nc3ccc(C(C)O)cc3)C3=C(C)C(OC(=O)C(O)C(NC(=O)OC(C)(C)C)c4ccccc4)CC(O)(C(OC(=O)c4ccccc4)C21)C3(C)C (centres unmarked) [Compound I-3] | 25.3 | 0.814 | 0.657 | 0.319 | 0.084 | 0.916 | 8.3 | 0.376 | 2.22 | 2.08 | 10.5 | 6.61 | 2.69 | – | – | – | – | –
CC(=O)OC12COC1CC(O)C1(C)C(=O)C(OC(=O)Nc3ccc(C(C)O)cc3)C3=C(C)C(OC(=O)C(O)C(NC(=O)OC(C)(C)C)c4ccccc4)CC(O)(C(OC(=O)c4ccccc4)C21)C3(C)C (centres unmarked) [Compound I-5] | 5.64 | 1.41 | 4.76 | 17.7 | 0.016 | 12.7 | 11.4 | 0.808 | 10.7 | 0.635 | 3.39 | 2.91 | 4.75 | – | – | – | – | –
CC(=O)OC12COC1CC(O)C1(C)C(=O)C(OC(=O)Nc3ccc(C(C)O)cc3)C3=C(C)C(OC(=O)C(O)C(NC(=O)OC(C)(C)C)c4ccccc4)CC(O)(C(OC(=O)c4ccccc4)C21)C3(C)C (centres unmarked) [Compound I-6] | 18.9 | 0.878 | 12.8 | 30.1 | 0.02 | 12.2 | 12.9 | 0.123 | 11 | 3.49 | 3.03 | 11.7 | 8.48 | – | – | – | – | –
CC(=O)OC12COC1CC(O)C1(C)C(=O)C(OC(=O)Nc3ccc(C(C)O)cc3)C3=C(C)C(OC(=O)C(O)C(NC(=O)OC(C)(C)C)c4ccccc4)CC(O)(C(OC(=O)c4ccccc4)C21)C3(C)C (centres unmarked) [Compound I-7] | 60.2 | 0.888 | 6.47 | 10.2 | 0.1 | 6.73 | 10.9 | 0.972 | 3.11 | 4.93 | 9.19 | 13 | 7.36 | – | – | – | – | –
CC(=O)OC12COC1CC(O)C1(C)C(=O)C(OC(=O)Nc3ccc(C(C)=O)cc3)C3=C(C)C(OC(=O)C(O)C(NC(=O)OC(C)(C)C)c4ccccc4)CC(O)(C(OC(=O)c4ccccc4)C21)C3(C)C (centres unmarked) [II, reference compound] | 60.5 | 3.35 | 16.7 | 30.5 | 0.113 | 15.5 | 20.8 | 1.9 | 12.6 | 5.34 | 12.8 | 20.9 | 12.5 | – | – | – | – | –
CC(=O)O[C@@]12CO[C@@H]1C[C@H](O)[C@@]1(C)C(=O)[C@H](O)C3=C(C)[C@@H](OC(=O)[C@H](O)[C@@H](NC(=O)OC(C)(C)C)c4ccccc4)C[C@@](O)([C@@H](OC(=O)c4ccccc4)[C@H]21)C3(C)C [docetaxel, Docetaxel] | – | – | – | – | – | – | – | – | – | – | – | – | – | twice that of paclitaxel | 10 | 60 | 30 | 31

More lines, in order of falling IC50 [1], values ahead:

IC50 [1] [nM] | IC50 [2] [nM] | IC50 [3] [nM] | IC50 [4] [nM] | IC50 [5] [nM] | IC50 [6] [nM] | IC50 [7] [nM] | IC50 [8] [nM] | IC50 [9] [nM] | IC50 [10] [nM] | IC50 [11] [nM] | IC50 [12] [nM] | IC50 [13] [nM] | SMILES | ability to inhibit cell division relative to paclitaxel [14] | tumor cell proliferation inhibition rate relative to paclitaxel [14] [times] | effective rate [15] [%] | effective rate [16] [%] | effective rate [17] [%]
41.9 | 2.27 | 2.64 | 12.1 | 1.26 | 6.34 | 28.2 | 1.99 | 4.45 | 0.187 | 16 | 5.46 | 1.57 | CC(=O)OC12COC1CC(O)C1(C)C(=O)C(OC(=O)Nc3ccc(C(C)O)cc3)C3=C(C)C(OC(=O)C(O)C(NC(=O)OC(C)(C)C)c4ccccc4)CC(O)(C(OC(=O)c4ccccc4)C21)C3(C)C (centres unmarked) [Compound I-1] | – | – | – | – | –
27.1 | 0.007 | 9.16 | 12.7 | 0.032 | 14.2 | 14.7 | 1.7 | 9.05 | 0.844 | 10.5 | 6.57 | 10.1 | CC(=O)OC12COC1CC(O)C1(C)C(=O)C(OC(=O)Nc3ccc(C(C)O)cc3)C3=C(C)C(OC(=O)C(O)C(NC(=O)OC(C)(C)C)c4ccccc4)CC(O)(C(OC(=O)c4ccccc4)C21)C3(C)C (centres unmarked) [Compound I-8] | – | – | – | – | –
12.4 | 0.549 | 8.62 | 17.5 | 0.097 | 6.4 | 18.8 | 0.726 | 2.18 | 4.99 | 12.1 | 12.6 | 9.12 | CC(=O)OC12COC1CC(O)C1(C)C(=O)C(OC(=O)Nc3ccc(C(C)O)cc3)C3=C(C)C(OC(=O)C(O)C(NC(=O)OC(C)(C)C)c4ccccc4)CC(O)(C(OC(=O)c4ccccc4)C21)C3(C)C (centres unmarked) [Compound I-4] | – | – | – | – | –
